{
  "source": "patent US9586974B2",
  "about": "“Cyclic N-acyl O-amino phenol CBI derivative” (THE SCRIPPS RESEARCH LINSTITUTE, priority 2013, dated 2017)",
  "key": {"[1]": {"experiment": "Stability in human plasma", "assay_type": "in vitro ADME", "description": "Reagents and solvents were purchased reagent-grade and used without further purification. Pooled human plasma, with sodium citrate as an anticoagulant, was purchased from Innovative Research and stored at −20° C. THF was freshly distilled from sodium benzophenone ketyl. All reactions were performed in oven-dried glassware under an Ar atmosphere. Evaporation and concentration in vacuo was performed at 20° C. TLC was conducted using precoated SiO2 60 F254 glass plates from EMD with visualization by UV light (254 or 366 nm). Chiral phase HPLC was performed using a Shimadzu HPLC on a semi-preparative Diacel ChiralCel OD column (0.46 cm×25 cm) with a flow rate of 7 mL/min and with UV detection at λ=254 nm. Optical rotations were determined on a Rudolf Research Analytical Autopol III Automatic Polarimeter (λ=589 nm, 25° C.)."}, "[2]": {"tested_on": "L1210 (ATCC CCL-219) mouse lymphocytic leukemia cells", "experiment": "Cell growth inhibition assay (phosphatase readout)", "assay_type": "cell-based", "description": "Compounds were tested for their cell growth inhibition of L1210 (ATCC CCL-219) mouse lymphocytic leukemia cells. A population of cells (>1×10^6 cells/mL as determined with a hemocytometer) was diluted with an appropriate amount of Dulbecco-modified Eagle Medium (DMEM, Gibco) containing 10% fetal bovine serum (FBS, Gibco) to a final concentration of 30,000 cells/mL. To each well of a 96-well plate (Corning® Costar®), 100 μL of the cell-media solution was added with a multichannel pipette. The cultures were incubated at 37° C. in an atmosphere of 5% CO2 and 95% humidified air for 24 hours. The test compounds were added to the plate as follows: test substances were diluted in DMSO to a concentration of 1 mM and 10-fold serial dilutions were performed on a separate 96-well plate. Fresh culture medium (100 μL) was added to each well of cells to constitute 200 μL of medium per well followed by 2 μL of each test agent. Compounds were tested in duplicate (≧2 times) at six concentrations between 0-100 nM or 0-1000 nM. Following addition, cultures were incubated for an additional 72 hours.\nA phosphatase assay was used to establish the IC50 values as follows: the media in each cell was removed and 100 μL of phosphatase solution (100 mg phosphatase substrate in 30 mL 0.1 M NaOAc, pH 5.5, 0.1% Triton® X-100 buffer) was added to each well. The plates were incubated at 37° C. for 5 minutes. After the given incubation time, 50 μL of 0.1 N NaOH was added to each well and the absorption at 405 nm was determined using a 96 well plate reader. As the absorption is directly proportional to the number of living cells, the IC50 values were calculated and the reported values represent of the average of ≧4 determinations (SD±10%)."}, "[3]": {"experiment": "not given", "remark": "listed apart in the source"}, "[4]": {"experiment": "Stability in acidic media"}, "[5]": {"experiment": "Cleavage under reductive conditions", "assay_type": "physicochemical", "conditions": "H2, Pd/C, MeOH, 23° C., 1 hour or Mo(CO)6, MeCN/H2O, reflux, 3 hours", "excerpt": "The greater stability of Compound 12 versus Compound 15 toward nucleophilic cleavage of the N—O bond can be attributed to the increased steric hindrance of the tertiary versus secondary nitrogen consistent with prior observations. [Lajiness et al., J. Med. Chem. 2010, 53:7731-7738]"}, "[6]": {"tested_on": "L1210 murine leukemia cells", "experiment": "In vivo antitumor activity, L1210 implanted ip in B6D2F1 mice", "parameters": "species or system mouse", "description": "[Wolfe et al., J. Med. Chem. 2012, 55:5878-5886.] Therefore, the preliminary evaluation of the in vivo antitumor activity of the cyclic N—O pro-drugs was assessed with Compound (+)-6 and was conducted alongside seco-CBI-indole2 (Compound 4) in an antitumor model consisting of L1210 murine leukemia cells implanted ip in B6D2F1 mice traditionally used to initially compare new duocarmycin derivatives (Table 3, below).\nB6D2F1 mice were injected intraperitoneally (i.p.) with syngeneic L1210 cells (1×10^6) on day 0. Ten mice were randomly assigned to control vehicle or treatment groups for Compounds (+)-4 and (+)-6 at doses of 60, 100, 250, and 500 μg/kg/inj for Compounds (+)-4 or 60, 200, 500, 1000, and 2500 μg/kg/inj for Compounds (+)-6. Compounds (+)-4 and (+)-6 were formulated in 100% DMSO. Both compounds were injected i.p. on days 1, 5, and 9. Following injection of tumor cells, animals were monitored daily and weighed two times per week. Percent survival (T/C) for treated and control groups were determined by dividing the total survival days for each treatment group by the total survival days for the control group and multiplying×100. All animal studies were carried out in the animal facilities of The University of Kansas Medical Center with strict adherence to the guidelines of the IACUC Animal Welfare Committee of KUMC (IACUC approval #2009-1837)."}, "[7]": {"conditions": "Mus musculus, L1210, 72 h, read-out: IC50 L1210 unnatural, unnatural enantiomer, 72 hours"}, "[8]": {"conditions": "60 μg/kg i.p. on days 1, 5 and 9"}, "[9]": {"conditions": "200 μg/kg i.p. on days 1, 5 and 9"}, "[10]": {"conditions": "500 μg/kg i.p. on days 1, 5 and 9"}, "[11]": {"conditions": "1000 μg/kg i.p. on days 1, 5 and 9"}, "[12]": {"conditions": "2500 μg/kg i.p. on days 1, 5 and 9"}},
  "note": "pIC50: −log10 of the molar value. Where two headings read alike, the source gives them in different places.",
  "data": [
    {"smiles": "O=C(Nc1ccc2[nH]c(C(=O)N3C[C@@H](CCl)c4c3cc3c5c(cccc45)C(=O)NO3)cc2c1)c1cc2ccccc2[nH]1", "note": "[Compound 7, N-(2-(10-(Chloromethyl)-4-oxo-5,8,9,10-tetrahydro-4H-pyrrolo[3′,2′:5,6]naphtho[1,8-de][1,2]oxazine-8-carbonyl)-1H-indol-5-yl)-1H-indole-2-carboxamide]", "values": [
      {"measurement": "t1/2 in human plasma", "setting": "[1]", "result": 4, "unit": "days"},
      {"measurement": "pIC50", "setting": "[2]; [7]", "result": 7.19},
      {"measurement": "pIC50", "setting": "[2]; Mus musculus, L1210, natural enantiomer, 72 hours, read-out: IC50 L1210 natural", "result": 9.52},
      {"measurement": "free drug in mouse plasma", "result": "< 5", "unit": "%"},
      {"measurement": "t1/2 in pH 7.0 phosphate buffer", "setting": "[3]", "result": 1, "unit": "week"}
    ]},
    {"smiles": "CN1Oc2cc3c(c4cccc(c24)C1=O)[C@H](CCl)CN3C(=O)c1cc2cc(NC(=O)c3cc4ccccc4[nH]3)ccc2[nH]1", "note": "[Compound 6, N-(2-(10-(Chloromethyl)-5-methyl-4-oxo-5,8,9,10-tetrahydro-4H-pyrrolo[3′,2′:5,6]naphtho[1,8-de][1,2]oxazine-8-carbonyl)-1H-indol-5-yl)-1H-indole-2-carboxamide]", "values": [
      {"measurement": "t1/2 in human plasma", "setting": "[1]", "result": "> 1", "unit": "week"},
      {"measurement": "half-life in acidic media", "setting": "[4]; 1:1 TFA/CH2Cl2, 23° C.", "result": 30, "unit": "h"},
      {"measurement": "half-life (t1/2) in acidic media", "setting": "[4]; 4 N HCl/EtOAc, 23° C. (12, 15: after initial Boc deprotection)", "result": "> 72", "unit": "h"},
      {"measurement": "pIC50", "setting": "[2]; [7]", "result": 6.13},
      {"measurement": "pIC50", "setting": "[2]; read-out: IC50 L1210 natural, natural enantiomer, 72 hours", "result": 9.00},
      {"measurement": "cleavage under reductive conditions", "setting": "[5]", "result": "rapidly cleaved"},
      {"measurement": "MSP (Mean Survival Period)", "setting": "[6]; [8]", "result": 28, "unit": "days"},
      {"measurement": "Surviving Mice (live animals after 366 days)", "setting": "[6]; [8]", "result": "0/10"},
      {"measurement": "T/C = Treated/Control (MSP) × 100", "setting": "[6]; [8]", "result": 159},
      {"measurement": "MSP (Mean Survival Period)", "setting": "[6]; [9]", "result": ">68", "unit": "days"},
      {"measurement": "Surviving Mice (live animals after 366 days)", "setting": "[6]; [9]", "result": "1/10"},
      {"measurement": "T/C = Treated/Control (MSP) × 100", "setting": "[6]; [9]", "result": ">386"},
      {"measurement": "MSP (Mean Survival Period)", "setting": "[6]; [10]", "result": ">201", "unit": "days"},
      {"measurement": "Surviving Mice (live animals after 366 days)", "setting": "[6]; [10]", "result": "4/10"},
      {"measurement": "T/C = Treated/Control (MSP) × 100", "setting": "[6]; [10]", "result": ">1142"},
      {"measurement": "MSP (Mean Survival Period)", "setting": "[6]; [11]", "result": ">199", "unit": "days"},
      {"measurement": "Surviving Mice (live animals after 366 days)", "setting": "[6]; [11]", "result": "4/10"},
      {"measurement": "T/C = Treated/Control (MSP) × 100", "setting": "[6]; [11]", "result": ">1130"},
      {"measurement": "MSP (Mean Survival Period)", "setting": "[6]; [12]", "result": ">264", "unit": "days"},
      {"measurement": "Surviving Mice (live animals after 366 days)", "setting": "[6]; [12]", "result": "6/10"},
      {"measurement": "T/C = Treated/Control (MSP) × 100", "setting": "[6]; [12]", "result": ">1500"},
      {"measurement": "t1/2 in pH 7.0 phosphate buffer", "setting": "[3]", "result": "> 4", "unit": "weeks"}
    ]}
  ]
}
